This is an account of results in patent US20260315446A1, “ANTIFUNGAL COMPOUNDS AND USES THEREOF” (priority 2023, published 2026).

≈ marks a conversion by molar mass, not a printed value. Entries after “also recorded” stand apart in the source; their conditions may differ. Read-outs that look alike come from different tables or passages of the source.

One experiment deals with C. neoformans. The experiment in a line: MIC assay (Example 4). The experiment is classed as cell-based, Cryptococcus neoformans. Particulars: Cryptococcus neoformans. Here is the method: Both JH-FK-10 and JH-FK-11 maintained in vitro antifungal activity against C. neoformans with MICs of 0.8 and 1.6 μg/mL, respectively (Table 11).
In vitro antifungal activity of FK506, FK520, and analogs was assessed in RPMI 1640 (Sigma-Aldrich) for all strains tested. Minimum inhibitory concentrations (MIC) for each drug were measured using modified Clinical and Laboratory Standards Institute (CLSI) M38-A2 and M27-A3 standard in vitro antifungal susceptibility protocols. Broth microdilution assays for MIC assessment were performed as previously described. All antifungal assays with C. neoformans were performed at 37° C.

In another experiment the test system is immunosuppression. As to conditions: listed as L-685,818; cited from earlier work.
The next experiment relates to fungi. Particulars: listed as L-685,818; cited from earlier work.
Experiment [1] concerns IL-2 expression in primary murine CD4+ T cells. The experiment in a line: In vitro immunosuppressive activity, IL-2 expression (Example 4). The experiment is classed as cell-based, mouse. Here is the method: Spleen and lymph nodes were collected from C57BL/6 mice and homogenized through a 40 μm filter. Pan-CD4^+ T cells were enriched using MagniSort Mouse CD4 T cell Kit (eBioscience) according to the manufacturer's protocol. Thereafter, CD4+CD25−CD44lo CD62Lhi naïve T cells were FACS-sorted. The naïve CD4+ T cells were grown in Iscove's Modified Dulbecco's Medium (IMDM) supplemented with glutamine, penicillin, streptomycin, gentamicin, 2-mercaptoethanol, and 10% FBS. Cells were then cultured on anti-hamster IgG coated plates in the presence of hamster anti-CD3 epsilon and anti-CD28 antibodies (BD Biosciences), neutralizing anti-IL-4 antibody (eBioscience), recombinant IL-12 (10 ng/mL), and recombinant IL-2 (50 U/mL) for 72 h. During this period, cells were grown in the presence of 2× serially diluted FK506, FK520, or analog suspended in DMSO for 72 h. During the last 4 h of culture, phorbol 12-myristate 13-acetate (PMA; Sigma), ionomycin (Sigma), and GolgiStop (BD Biosciences) were added to the culture to facilitate detection of intracellular cytokines via flow cytometry.
Live cells were stained with FITC-conjugated anti-CD4 antibody (eBioscience) and Fixable Viability Dye eFluor 506 (eBioscience) on ice, followed by fixation and permeabilization using the Foxp3 Transcription Factor Staining Kit (eBioscience). Intracellular staining was performed at room temperature using PE-conjugated anti-IL-2 antibody (eBioscience), followed by analysis with a BD LSRFortessa X-20 flow cytometer.

Experiment [2] has as its system C. neoformans H99. The experiment in a line: Survival in intranasal cryptococcosis model (Example 1). As to conditions: 14 days treatment; JH-FK-05 60 mg/kg, fluconazole 12 mg/kg, i.p. daily. The experiment is classed as in vivo, Cryptococcus neoformans in A/J mice. Here is the method: To verify if this reduction seen in the fungal burdens of JH-FK-05 and combination-treated animals could translate into a meaningful therapeutic effect, the survival of animals infected via the intranasal route was assessed (FIG. 8A). As in the fungal burden model, these animals received daily treatment for only 14 days. Following the termination of treatment, animals were monitored for signs of decline, lethargy, and ultimately, moribundity. Untreated animals in this model typically survive for about 3 weeks, and similar results were observed here (vehicle treatment median survival, 22 days). Corroborating the results of the fungal burden study, a significant extension of survival for both JH-FK-05 (median survival, 26 days) and fluconazole (median survival, 25 days) was observed.
Female A/J mice (3 to 4 weeks old; Jackson Laboratory) were anesthetized utilizing an isoflurane chamber. While anesthetized, […] of 2×10^6 cells/mL suspension was dripped onto the nares of mice, allowing them to inhale the full inoculum. Treatment began 3 h following infection with i.p. dosing of vehicle, 60 mg/kg JH-FK-05, 12 mg/kg fluconazole, or combination. […] After 14 days, animals were either sacrificed for fungal burden analysis or monitored for health and survival until reaching a humane endpoint. […] Statistical significance was determined using log-rank (Mantel-Cox) tests.

The subject of experiment [3] is C. neoformans strain H99. The experiment in a line: Murine cryptococcal infection, spleen fungal burden (Example 3). Format: in vivo, Cryptococcus neoformans in A/J mice. Particulars: 14 days; fluconazole 6 mg/kg, JH-FK-08 40 mg/kg, i.p. twice per day. Here is the method:
(§1) In vivo antifungal activity and therapeutic benefit were assayed by investigating the impact of the FK520 analog on organ fungal burden during cryptococcosis. Specifically, the in vivo efficacy of JH-FK-08 on fungal burden was assessed using A/J female mice. Immunodeficient A/J mice were selected in part due to their defect in complement component five and their susceptibility to cryptococcal infection. Treatment groups included vehicle of 10% Kolliphor: ethanol (1:1) in phosphate-buffered saline (PBS), 6 mg/kg fluconazole, 40 mg/kg JH-FK-08, or the fluconazole and JH-FK-08 combination, all given via intraperitoneal (i.p.) injection twice per day beginning at 4 hours post infection. […] Mice were intranasally infected with C. neoformans strain H99, and fungal burden in the lung, spleen, and brain was assessed after 14 days of treatment.
(§2) C. neoformans inoculum was prepared by growing a 5-mL overnight YPD culture spinning in a tissue culture roller drum at 30° C. Cells were pelleted by centrifugation and washed in sterile PBS three times. Cell density was determined by hemocytometer, and cells were diluted to 2×10^6 cells/mL. Mice (10 to 20 g) were infected with 10^5 cells of C. neoformans H99. […] Following inhalation of the inoculum, animals were monitored for post anesthesia recovery. […] Fungal burden was assessed 24 h after the final dose. […]

Experiment [4] concerns C. neoformans H99. The experiment in a line: Intranasal model of pulmonary cryptococcosis, lung fungal burden (Example 1). The experiment is classed as in vivo, Cryptococcus neoformans in A/J mice. As to conditions: day 14; fluconazole 12 mg/kg i.p. daily.
Experimental: First, in the intranasal model, animals were anesthetized and infected with 10^5 cells of wild-type H99 C. neoformans via instillation in the animal's nares. These animals were monitored for 14 days and then sacrificed. This model tests the efficacy of JH-FK-05 to treat a pulmonary infection, which is the most common manifestation of early-stage cryptococcosis in patients. […] In both models, animals were treated once daily via i.p. injection beginning 3 h after infection with either vehicle, 60 mg/kg JH-FK-05, 12 mg/kg fluconazole, or a combination of the two monotherapies.
Wild-type H99 C. neoformans cells were grown overnight at 30° C. in a roller drum in yeast extract-peptone-dextrose (YPD) medium. […] H99 cells were counted with a hemacytometer and diluted to 2×10^6 cells/mL in PBS for the pulmonary model and 2×10^5 cells/mL in PBS for the disseminated model.
Female A/J mice (3 to 4 weeks old; Jackson Laboratory) were anesthetized utilizing an isoflurane chamber. […] After 14 days, animals were either sacrificed for fungal burden analysis or monitored for health and survival until reaching a humane endpoint.
Mice were euthanized by CO2 inhalation at the predetermined experimental endpoint. […] A 100-μL aliquot of each dilution was plated on antibiotic plates (YPD, 50 μg/mL ampicillin, and 30 g/mL chloramphenicol), incubated for 48 to 72 h at 30° C., and assessed for CFU. […]
Experiment [5] relates to C. neoformans strain H99. In words: Murine cryptococcal infection, lung fungal burden (Example 3). Format: in vivo, Cryptococcus neoformans in A/J mice. As to conditions: JH-FK-08 40 mg/kg. Here is the method: as §1, with “[…],” for “6 mg/kg fluconazole, 40 mg/kg JH-FK-08,”, “all given via intraperitoneal (i.p.) injection twice per day beginning at 4 hours post” left out
(§3) C. neoformans inoculum was prepared by growing a 5-mL overnight YPD culture spinning in a tissue culture roller drum at 30° C. Cells were pelleted by centrifugation and washed in sterile PBS three times. Cell density was determined by hemocytometer, and cells were diluted to 2×10^6 cells/mL. Mice (10 to 20 g) were infected with 10^5 cells of C. neoformans H99. For inhalation infection, animals were anesthetized with isoflurane before 50 μL of inoculum was pipetted onto the upright nasal passages of each animal. Following inhalation of the inoculum, animals were monitored for post anesthesia recovery. Treatment of animals began 4 hours post infection and was continued for 14 days. Fungal burden was assessed 24 h after the final dose.
For survival curve analysis, animals were monitored until reaching defined humane end points, including social isolation, hunched posture, weight loss, lack of grooming, and labored breathing, and were then euthanized via CO2 inhalation. […] One hundred microliters of each dilution was plated on YPD plates supplemented with YPD 50 μg/mL ampicillin and 30 μg/mL chloramphenicol, incubated at 30° C. for 2 days, and assessed for colony-forming units. CFU per organ weight was calculated and plotted using GraphPad Prism 9.

Experiment [6] deals with C. neoformans strain H99. The experiment in a line: Survival during cryptococcal infection (Example 3). The experiment is classed as in vivo, Cryptococcus neoformans in A/J mice. Particulars: 2 weeks twice daily i.p.; fluconazole 6 mg/kg, JH-FK-08 40 mg/kg; vehicle 16 days. Here is the method:
Finally, whether the antifungal efficacy translates into extended survival during infection was assessed. To test the impact of treatment on survival, murine survival was monitored in the cryptococcosis infection model. Following the same protocol of infection and dosing as in the fungal burden experiment, animal survival was monitored following infection and 2 weeks of intraperitoneal dosing. Fluconazole treatment extended median survival from 16 to 27 days.
as §3
For survival curve analysis, animals were monitored until reaching defined humane end points, including social isolation, hunched posture, weight loss, lack of grooming, and labored breathing, and were then euthanized via CO2 inhalation. For fungal burden analysis, mice were euthanized following 2 weeks of treatment with a designated antifungal, vehicle, or combination. Brain, lung, and spleen were harvested from animals, weighed, and homogenized in sterile PBS using steel beads and a bead beater. Each organ homogenate was serially diluted 10-fold to 10-4 in PBS. One hundred microliters of each dilution was plated on YPD plates supplemented with YPD 50 μg/mL ampicillin and 30 μg/mL chloramphenicol, incubated at 30° C. for 2 days, and assessed for colony-forming units. CFU per organ weight was calculated and plotted using GraphPad Prism 9.

Experiment [7] has as its system C. neoformans strain H99. The experiment in a line: Murine cryptococcal infection, brain fungal burden (Example 3). The experiment is classed as in vivo, Cryptococcus neoformans in A/J mice. Particulars: 14 days; fluconazole 6 mg/kg, JH-FK-08 40 mg/kg, i.p. twice per day. Here is the method: as §1, §2

With `CC[C@@H]1/C=C(\C)C(O)[C@H](C)C[C@H](OC)[C@H]2O[C@@](O)(C(=O)C(=O)N3CCCC[C@H]3C(=O)O[C@H](/C(C)=C/[C@@H]3CC[C@@H](O)[C@H](OC)C3)[C@H](C)[C@@H](O)CC1=O)[C@H](C)C[C@@H]2OC` (single isomer, unassigned) [JH-FK-11], the MIC with C. neoformans (37° C., Table 13, read-out: C. neoformans MIC) worked out at 1.6 µg/mL (≈ 1.98 µM); with C. neoformans (read-out: C. neoformans MIC, 37° C., Table 11), 3.2 µg/mL (≈ 3.96 µM); with C. neoformans (read-out: C. neoformans MIC, 37° C., Table 12), 1.6 µg/mL (≈ 1.98 µM). Moreover, the “immunosuppression” value in the experiment with immunosuppression is recorded as “non-immunosuppressive; also recorded: reduced for immunosuppression in vitro”. Also, in the experiment on fungi, the “antifungal activity” value is “robust antifungal activity; also recorded: broad-spectrum antifungal activity”. Further, the “immunosuppressive activity” value in experiment [1] is given as “detectable immunosuppressive activities; also recorded: significantly reduced for immunosuppressive activity compared to its FK506 counterpart JH-FK-10”. Moreover, the IC50 in [1] (Mus musculus, CD4+ T, Table 12) amounted to 41.4 nM.

Regarding `OC(Cn1cncn1)(Cn1cncn1)c1ccc(F)cc1F` [fluconazole, reference compound], the median survival in the experiment on C. neoformans H99 [2] came to 25 days; in the experiment on C. neoformans strain H99 [6], 27 days. The “spleen fungal burden” value in the experiment with C. neoformans strain H99 [3] is listed as “no detectable fungal burden”. The “lung fungal burden” value with C. neoformans H99 [4] was “did not reduce the fungal burden”. Moreover, the “reduction of lung fungal burden” value with C. neoformans strain H99 [5] (14 days, fluconazole 6 mg/kg, i.p. twice per day) is ~ 6 fold. Also, the “lung fungal burden reduction” value in the experiment with C. neoformans strain H99 [5] (once daily, fluconazole 12 mg/kg) is “limited efficacy in reducing lung fungal burden”. For the same compound, the “brain fungal burden” value in the experiment with C. neoformans strain H99 [7] was “no detectable fungal burden”.

Usually MIC stands for the smallest concentration in the dilution series that meets the test's criterion for growth inhibition. As usually defined, the IC50 is the point on the concentration scale where inhibition reaches its midpoint. A high value points to weaker potency in that assay.
